Data: patent publication US20260131033A1, “RADIOLABELED FRUCTOSE DERIVATIVES FOR MEDICAL IMAGING” (Yellowbird Diagnostics Inc., priority 2023, published 2026)

Assays:
[1] = tested on: heterotopic HepG2 xenograft mouse model; assay: Comparative PET/CT biodistribution in heterotopic HepG2 xenograft mouse model; type: in vivo
Procedure: After the confirmation of cell uptake and intracellular trapping of [U^13C]4-FDF, and the successful production of the radiofluorinated analog, the biodistribution of [^18F]4-FDF was evaluated in a heterotopic HepG2 xenograft mouse model and compared to the biodistribution of [^18F]6-FDF and [^18F]FDG. PET/CT images shown are the summed images from 20-45 min after intravenous injection of (FIG. 4A) [^18F]4-FDF, (FIG. 4B) [^18F]6-FDF, or (FIG. 4C) [^18F]FDG. Sagittal, coronal, and maximum intensity projection (MIP) are shown, in addition to axial sections at the level of the brain, heart, liver/kidneys, and hips. […] Purple represents an increase in AUC and blue represents a decrease in AUC. The values are normalized fold-change in AUC.
Eight-week-old female nu/nu mice were inoculated with 10×10^6 HepG2 cells suspended in 50% Matrigel:DMEM subcutaneously under the left shoulder. Within 3-weeks of implantation, mice were imaged by PET/CT.
PET/CT Imaging. PET/CT imaging was carried out on a Bruker Si78PET/CT scanner with a 4-position hotel having adjustable isoflurane and respiratory monitoring for each position (Bruker USA). Tail veins were catheterized, and an anatomical CT was acquired over the whole of the mouse bodies using the “rat” settings. PET acquisition was started just prior to a bolus i.v. injection of approximately 200 μCi of radiotracer. Dynamic scans were acquired in list mode format over 45 min and sorted into 16×0.5-mm sinogram bins for image reconstruction (4×15 s, 4×60 s and 8×300 s). Iterative reconstruction was performed using 3D ordered-subsets expectation maximization (3D-OSEM) followed by fast maximum a posteriori (fastMAP) using Paravision 360 software v.3.4 (Bruker, USA). Four-mouse images were split into individual mice, and the bed was removed using PMOD v (Bruker, USA). VivoQuant v.2022 (InviCRO) was used for visualization of radioradiotracer uptake in tissues, to define the three-dimensional (3D) volumes of interest (VOI) and for 3D-visualisation to create volume rendering technique images. The count densities were averaged for all volumes of interest at each time point to obtain a time versus activity curve (TAC). Tumor and tissue TACs were normalized to injected dose, measured by a CRC-15 PET dose calibrator (Capintec, Inc., NJ, USA), and expressed as percentage injected dose per cubic centimeter of tissue (% ID/cc).

[2] = Time-course PET/CT biodistribution and TACs in fed or fasted mice; conditions: Balb/C mice freely fed or overnight fasted, ~7.4 MBq i.v., 60 min PET/CT
Procedure: Animals received ˜7.4 MBq i.v. immediately upon the initiation of image acquisition, which continued for 60 min. The dynamic scan was binned according to the times indicated.
Solid line=mean; Shaded region=standard deviation. Regions of interest were drawn over the tissues of interest, and the activity within that region of interest of known volume were plotted over the timecourse of the 60 min PET/CT acquisition.

[3] = tested on: HepG2 human hepatocarcinoma cells; assay: Tracing of [U^13C]-fructose analog metabolism in vitro by LC-MS; type: cell-based; conditions: for metabolic fate / main ^13C-labelled cellular product / metabolism through the polyol pathway: 25 mM ^13C-labelled analog; for formation of glucose-6-phosphate: polyol pathway
Procedure: In order to characterize the structure-activity effect of fructose deoxyfluorination on metabolic flux, the metabolism of isotopically labelled [U^13C]-fructose, and [U^13C]-1-, [U^13C]-6-, and [U^13C]-4-FDF deoxyfluorinated fructose analogs was evaluated in vitro in HepG2 human hepatocarcinoma cells by mass spectrometry (FIGS. 3A-3G). HepG2 were chosen as a model cell line due to a recent report by Tee et al. outlining their propensity for fructolysis (Tee, S. S. et al., 2022). [U^13C]-1- and [U^13C]-6-FDF were synthesized according to previously published methods (Haradahira, T. et al., 1995; Wuest, M. et al., 2011), and [U^13C]-4-FDF was synthesized as described hereinabove (Scheme 3).
Tracing of [U^13C]-fructose metabolism in vitro. Human hepatocellular carcinoma cells (HepG2) were grown in Dulbecco's modified Eagle medium (DMEM) supplemented with 10% heat-inactivated fetal bovine serum (FBS) and 1% penicillin-streptomycin (P/S) until 80% confluent under cell culture conditions (37° C., 5% CO2, humidified), at which point they were passaged. Cells were passaged three times before being seeded in to a 6-well plate and grown until 80% confluent. Supplemented media was aspirated and replaced with lactated Ringer's buffer (LRB) alone or containing 25 mM [U^13C]-1-FDF, [U^13C]-4-FDF, or [U^13C]-6-FDF. Cells were incubated under cell culture conditions for 0, 15, 30, or 60 min. Following incubation, the plates were placed on ice and wells were aspirated. Wells were washed three times with ice-cold ammonium formate buffer (150 mM, pH 7.4) to remove unbound probe. A chilled (−20° C.) solution of 1:1 methanol:water was added to the wells and cells were scraped off of the wells into the solution. This solution was collected into bead-beater tubes containing 6 beads and stored at −80° C. until further analysis was performed.
Levels of fructose metabolites were assessed by liquid chromatography mass spectrometry (LC-MS). Sample temperature was maintained on ice or dry ice where possible, and all solvents were MS grade and pre-equilibrated to −20° C.
Metabolite extraction. Cell pellets were collected to a pre-chilled 2 mL tube containing 6 washed ceramic beads (1.4 mm). 380 μl of methanol:water (1:1) was added in the tube and kept in −80° C. until the day of metabolite extraction. On the day of extraction, samples were vortexed for 10 s and cell lysis was done by beating for 60 s at 2000 rpm (bead beating was done twice) after adding 220 μL of acetonitrile. Samples were then incubated with a 2:1 dichloromethane:water solution on ice for 10 minutes. The polar and non-polar phases were separated by centrifugation at 4000 g for 10 minutes at 1° C. The resulting upper phase, consisting of polar metabolites was dried with a refrigerated (−4° C.) centrivap concentrator (Labconco) and stored at −80° C. before LC-MS analyses.
LC-MS metabolite quantification. Samples to be injected in -ESI were re-suspended with 75% acetonitrile, cleared by centrifugation and run on an Agilent 6545B Q-TOF mass spectrometer equipped with a 1290 Infinity II ultra-high performance LC (Agilent Technologies). Continuous internal mass calibration was executed using signals from purine [12,000 full width at half maximum (FWHM) resolution] and hexakis (1H,1H,3H-tetrafluoropropoxy) phosphazine (24,000 FWHM resolution). All study samples were randomized before analysis and run using both high and low pH hydrophilic interaction chromatography (HILIC-Z) in negative ionization mode. HILIC separation was obtained using the Poroshell 120 HILIC-Z column (2.1 100 mm, […]; Agilent) and corresponding guard column. The chromatographic conditions and mass spectrometry acquisition parameters were as described elsewhere (Zhu, Z. et al., 2023). Metabolite identification was confirmed by exact mass, retention time and subsequent MS/MS fragmentation for where standards are available. For the fluoro-fructose labelled metabolites, exact mass and MS/MS was considered for metabolite confirmation. […]

[4] = Wuest, M. et al., 2018; cited from earlier work

With “[^18F]-2-fluoro-2-deoxy-D-glucose [[^18F]FDG]” the “area under the time activity curve (AUC) in brain, fold greater than [^18F]4-FDF” value ([1]; brain, normalized to AUC of [^18F]4-FDF) was 6.01 fold, the “uptake in brain and heart in the absence of disease” value ([1]; healthy brain and heart, PET/CT) was “high” and the “area under the time activity curve (AUC) in heart, fold greater than [^18F]4-FDF” value ([1]; heart, normalized to AUC of [^18F]4-FDF) was 5.29 fold.
In the case of `O=C(CO)[C@@H](O)[C@@H]([18F])[C@H](O)CO` [[^18F]-4-fluoro-4-deoxytagatose], the bone uptake [2] is reported as “significant bone uptake that is retained overtime” and the route of clearance [2] is reported as “main route of clearance is the kidney”.
For `O=[13C]([13CH2]O)[13C@@H](O)[13C@H](O)[13C@H](O)[13CH2]O` [[U^13C]-fructose], the “metabolic fate / main ^13C-labelled cellular product” value ([3]; mass spectrometry) was “metabolized as expected through both fructolytic and polyol pathways”.
For `O=C(CO)[C@@H](O)[C@H](O)[C@H](O)CF` [[U^13C]-6-FDF, [U^13C]-6-fluoro-6-deoxyfructose], the “metabolic fate / main ^13C-labelled cellular product” value ([3]; mass spectrometry) was “substantial amount of [U^13C]-deoxyfluorolactate production”, the “metabolism through the polyol pathway” value ([3]; mass spectrometry) was “capable of proceeding through the polyol pathway” and the “metabolic trapping in the cell” value ([3]; mass spectrometry) was “neither [U^13C]-1- (FIG. 3E) nor [U^13C]-6-FDF are metabolically trapped”. For the same molecule, the “formation of glucose-6-phosphate” value [3] was “did not form detectable amounts of glucose-6-phosphate”.
With `O=C(CF)[C@@H](O)[C@H](O)[C@H](O)CO` [[U^13C]-1-FDF, [U^13C]-1-fluoro-1-deoxyfructose] the “metabolic fate / main ^13C-labelled cellular product” value ([3]; mass spectrometry) was “majority of the ^13C-labelled cellular product being [U^13C]-deoxyfluorolactate”, the “metabolism through the polyol pathway” value ([3]; mass spectrometry) was “limited metabolism through the polyol pathway” and the “metabolic trapping in the cell” value ([3]; mass spectrometry) was “neither [U^13C]-1- (FIG. 3E) nor [U^13C]-6-FDF are metabolically trapped”.
For `O=C(CF)[C@@H](O)[C@H](O)[C@H](O)CO` [[^18F]1-FDF, 1-deoxy-1-fluoro-fructose], the “retention in cells in vitro and in vivo” value [4] is given as “poorly retained in cells in vitro and in vivo”.
With `O=C(CO)[C@@H](O)[C@H](F)[C@H](O)CO` [[U^13C]-4-FDF, [U^13C]-4-fluoro-4-deoxyfructose] the “metabolic fate / main ^13C-labelled cellular product” value ([3]; mass spectrometry) was “metabolism halted at [U^13C]-4-fluorodeoxy-1-phosphate”, the “metabolism through the polyol pathway” value ([3]; mass spectrometry) was “capable of proceeding through the polyol pathway” and the “accumulation of fluorodeoxyfructose-1,6-bisphosphate” value ([3]; mass spectrometry) was “accumulation of [U^13C]-4-fluorodeoxyfructose-1,6-bisphophate”. For the same molecule, the “metabolic trapping in the cell” value ([3]; mass spectrometry) was “unique ability to be trapped within cells”, the “time course of metabolite generation” value ([3]; over 60 min of incubation) was “steady-state accumulation of [U^13C]-4-fluorodeoxyfructose-1-phosphate and [U^13C]-4-fluorodeoxyfructose-1,6-bisphosphate, and increase in [U^13C]-4-fluorodeoxysorbitol” and the “formation of glucose-6-phosphate” value [3] was “did not form detectable amounts of glucose-6-phosphate”.
In the case of `O=C(CO)[C@@H](O)[C@H](O)[C@H](O)C[18F]` [[^18F]6-FDF, [^18F]-6-fluoro-6-deoxyfructose], the bone uptake ([1]; HepG2 xenograft mice, PET/CT) is reported as over 7 % ID/g, the “bone uptake over time” value ([1]; HepG2 xenograft mice, TAC) is reported as “continued to increase overtime” and the “tumor accumulation / pattern of radiotracer retention” value ([1]; HepG2 xenograft mice, intravenous injection, PET/CT) is reported as “similarly observed”. For the same molecule, the “bone uptake, fold higher than [^18F]4-FDF” value ([1]; HepG2 xenograft mice, normalized to [^18F]4-FDF) was 3.69 fold.
